Reference: patent US7074811B2 (SmithKline Beecham p.l.c., priority 2000, dated 2006)

Assay: Hygroscopicity of the Hydrochloride (weight gain at 75% relative humidity)
Assay type: physicochemical
Conditions: 43 days

CN(CCOc1ccc(CC2SC(=O)NC2=O)cc1)c1ccccn1.Cl (centres unmarked) [Hydrochloride, 5-[4-[2-(N-methyl-N-(2-pyridyl)amino)ethoxy]benzyl]thiazolidine-2,4-dione hydrochloride]
hygroscopicity classification (75% relative humidity at 21° C.): non-hygroscopic (<2%) | percentage weight gain (75% relative humidity atmosphere at 21° C., constant weight attained, sample of Example 1): 0.4%
